Holding throughout (assay type): functional, organism-based
For assay [1], the system named is Plasmodium falciparum. Put plainly: Antimalarial activity against synchronous culture of Plasmodium falciparum W2 ring stage infected in human erythrocytes after 48 hrs by flow cytometry. As to conditions: W2, 48 h.
The subject of assay [2] is Plasmodium falciparum. Put plainly: Antimalarial activity against chloroquine-sensitive Plasmodium falciparum 3D7 infected in human type A+ erythrocytes after 48 hrs by [3H]-hypoxanthine incorporation assay.
The test system of assay [3] is Plasmodium falciparum. Put plainly: Antimalarial activity against chloroquine-resistant Plasmodium falciparum K1 infected in human type A+ erythrocytes after 48 hrs by [3H]-hypoxanthine incorporation assay.
For assay [4], the system named is Plasmodium falciparum. Put plainly: Antimalarial activity against chloroquine-sensitive Plasmodium falciparum D6 infected in human red blood cells assessed as reduction in parasitic LDH activity by Malstat reagent based spectrophotometric method.
For assay [5], the system named is Plasmodium falciparum. Put plainly: Antimalarial activity against chloroquine-resistant Plasmodium falciparum W2 infected in human red blood cells assessed as reduction in parasitic LDH activity by Malstat reagent based spectrophotometric method.
Assay [6] concerns Plasmodium falciparum. Put plainly: Antimalarial activity against chloroquine-sensitive Plasmodium falciparum 3D7 infected in human erythrocytes after 72 hrs by SYBR Green-1 staining based fluorescence assay. Conditions: 3D7, 72 h.
Assay [7] concerns Plasmodium falciparum. The experiment in a line: Antimalarial activity against chloroquine-sensitive Plasmodium falciparum 3D7 infected in human type A+ erythrocytes after 24 hrs by [3H]-hypoxanthine incorporation assay.
In assay [8] the test system is Plasmodium falciparum. Put plainly: Antimalarial activity against chloroquine-resistant Plasmodium falciparum W2 infected in human type A+ erythrocytes after 24 hrs by [3H]-hypoxanthine incorporation assay.
Assay [9] relates to Plasmodium falciparum. The experiment in a line: Antimalarial activity against Plasmodium falciparum 3D7 infected in human erythrocytes after 72 hrs by SYBR Green-1 staining based fluorescence assay. Conditions: 3D7, 72 h.

As for `O=C(/C=C/c1ccc([N+](=O)[O-])cc1)NCCCCNc1ccnc2cc(Cl)ccc12`, in the assay with Plasmodium falciparum [1], the IC50 (in general, the point on the concentration scale where inhibition reaches its midpoint) was in the range of 11 to 59 nM.

As for `O=C1OC(CN2CCN(c3ccccc3F)CC2)CN1CCCCCCNc1ccnc2cc(Cl)ccc12` (stereo not given), the IC50 in the assay with Plasmodium falciparum [2] and with Plasmodium falciparum [3] was 62 to 430 nM each time.

On to `Cc1cccc(C)c1Nc1nc(OCc2cn(CCNc3ccnc4cc(Cl)ccc34)nn2)nc(N(C)C)n1`, for which the figures for the IC50 in the assay with Plasmodium falciparum [4] and with Plasmodium falciparum [5] were 580 nM and 730 nM, respectively.

On to `COc1ccc(OCc2cn(CCNc3ccnc4cc(Cl)ccc34)nn2)cc1`, for which the IC50 is 650 nM in the assay on Plasmodium falciparum [4] and 1120 nM with Plasmodium falciparum [5].

For the compound `COc1ccccc1N1CCN(CC2CN(CCNc3ccnc4cc(Cl)ccc34)C(=O)O2)CC1` (stereo not given), the IC50 in the assay with Plasmodium falciparum [2] and in the assay with Plasmodium falciparum [3] was 62 to 430 nM in each case.

`O=C(/C=C/c1cccc([N+](=O)[O-])c1)NCCCCNc1ccnc2cc(Cl)ccc12` yielded an IC50 in the assay on Plasmodium falciparum [1] of 11 to 59 nM.

For `O=C(/C=C/c1ccccc1)NCCCCNc1ccnc2cc(Cl)ccc12`, the IC50 in the assay on Plasmodium falciparum [1] lay in the range of 11 to 59 nM.

The compound `O=C(/C=C/c1ccc(F)cc1)NCCCCNc1ccnc2cc(Cl)ccc12` came in with an IC50 in the assay with Plasmodium falciparum [1] of 11 to 59 nM.

The compound `C=C[C@H]1CN2CC[C@H]1C[C@H]2[C@H](OC(=O)CNC(=O)c1cn(C2CC2)c2cc(N3CCN(CC)CC3)c(F)cc2c1=O)c1ccnc2ccc(OC)cc12` had an IC50 in the assay on Plasmodium falciparum [6] of 12 to 207 nM.

Consider `O=C(/C=C/c1ccccc1[N+](=O)[O-])NCCCCNc1ccnc2cc(Cl)ccc12`, for which the IC50 with Plasmodium falciparum [1] lay in the range of 11 to 59 nM.

Take `O[C@@]12OOC3(C=C1C[C@@H]1C=C[C@H]2C1)CCN(c1ccnc2cc(Cl)ccc12)CC3`: the IC50 in the assay on Plasmodium falciparum [7] and in the assay with Plasmodium falciparum [8] was 6.05 to 6.75 µM throughout.

In the assay on Plasmodium falciparum [6], `C=C[C@H]1CN2CC[C@H]1C[C@H]2[C@H](OC(=O)[C@H](CC(C)C)NC(=O)c1cn(CC)c2nc(C)ccc2c1=O)c1ccnc2ccc(OC)cc12` returned an IC50 of 12 to 207 nM.

Turning to `C=C[C@H]1CN2CC[C@H]1C[C@H]2[C@H](OC(=O)CNC(=O)c1cn2c3c(c(N4CCN(C)CC4)c(F)cc3c1=O)OC[C@@H]2C)c1ccnc2ccc(OC)cc12`, in the assay on Plasmodium falciparum [6], the IC50 is 12 to 207 nM.

Regarding `C=C[C@H]1CN2CC[C@H]1C[C@H]2[C@H](OC(=O)[C@H](CCC(=O)OCc1ccccc1)NC(=O)OC(C)(C)C)c1ccnc2ccc(OC)cc12`, in the assay with Plasmodium falciparum [9], the IC50 is less than 100 nM.

For the compound `C[C@H]1COc2c(N3CCN(C)CC3)c(F)cc3c(=O)c(C(=O)O)cn1c23` [LEVOFLOXACIN], the IC50 in the assay with Plasmodium falciparum [6] is more than 20000 nM.

Consider `O=C1OC(CN2CCN(c3ccccc3Cl)CC2)CN1CCNc1ccnc2cc(Cl)ccc12` (stereo not given), for which the IC50 in the assay with Plasmodium falciparum [2] and in the assay with Plasmodium falciparum [3] was 62 to 430 nM each time.

Regarding `C=C[C@H]1CN2CC[C@H]1C[C@H]2[C@H](OC(=O)[C@H](C)NC(=O)[C@H](Cc1ccccc1)NC(=O)CNC(=O)OCc1ccccc1)c1ccnc2ccc(OC)cc12`, in the assay on Plasmodium falciparum [9], the IC50 is less than 100 nM.

With `O=C1OC(CN2CCN(c3ccccc3F)CC2)CN1CCCCNc1ccnc2cc(Cl)ccc12` (stereo not given), the IC50 in the assay on Plasmodium falciparum [2] and in the assay with Plasmodium falciparum [3] was 62 to 430 nM in each case.

Regarding `O=C1OC(CN2CCN(c3ccc(F)cc3)CC2)CN1CCNc1ccnc2cc(Cl)ccc12` (stereo not given), the IC50 in the assay on Plasmodium falciparum [2] and with Plasmodium falciparum [3] was 62 to 430 nM throughout.

For the compound `C=C[C@H]1CN2CC[C@H]1C[C@H]2[C@H](OC(=O)CNC(=O)c1cn(CC)c2nc(C)ccc2c1=O)c1ccnc2ccc(OC)cc12`, the IC50 in the assay on Plasmodium falciparum [6] is 12 to 207 nM.

For `C=C[C@H]1CN2CC[C@H]1C[C@H]2[C@H](OC(=O)[C@H](Cc1cn(S(=O)(=O)c2ccc(C)cc2)cn1)NC(=O)OC(C)(C)C)c1ccnc2ccc(OC)cc12`, the IC50 with Plasmodium falciparum [9] is less than 100 nM.

Turning to `COc1ccc(/C=C/C(=O)NCCCCNc2ccnc3cc(Cl)ccc23)cc1`, the IC50 with Plasmodium falciparum [1] was in the range of 11 to 59 nM.

Turning to `O=C1OC(CN2CCN(c3ccccc3F)CC2)CN1CCCNc1ccnc2cc(Cl)ccc12` (stereo not given), the IC50 with Plasmodium falciparum [2] and with Plasmodium falciparum [3] was 62 to 430 nM each time.

For the compound `CC(C)c1ccc(/C=C/C(=O)NCCCCNc2ccnc3cc(Cl)ccc23)cc1`, in the assay with Plasmodium falciparum [1], the IC50 lay within 11 to 59 nM.

The compound `O=C(/C=C/c1ccc(Cl)cc1)NCCCCNc1ccnc2cc(Cl)ccc12` gave an IC50 in the assay on Plasmodium falciparum [1] of 11 to 59 nM.

For the compound `O=C(/C=C/c1ccc(Br)cc1)NCCCCNc1ccnc2cc(Cl)ccc12`, the IC50 in the assay on Plasmodium falciparum [1] fell in the range of 11 to 59 nM.

Values taken from ChEMBL document CHEMBL4190314, “Quinoline hybrids and their antiplasmodial and antimalarial activities” (Eur J Med Chem, 2017).
